# Test results published in patent publication US20150174123A1, “OXABICYCLOHEPTANES AND OXABICYCLOHEPTENES FOR THE TREATMENT OF REPERFUSION INJURY” (priority 2012, published 2015).
# pIC50: −log10 of the molar value. Where “and” joins values, the source holds several entries; their conditions need not be identical. Equal values may be shown once. Entries after “also recorded” stand apart in the source; their conditions may differ. Read-outs that look alike come from different tables or passages of the source.
# Key:
# PP2A [1] = target: PP2A (Homo sapiens, UniProt P67775); conditions: cited from earlier work; for PP2A inhibition: statement in words
# PP2A (Homo sapiens, UniProt P67775), sequence (P67775 whole entry, the tested form may be a part): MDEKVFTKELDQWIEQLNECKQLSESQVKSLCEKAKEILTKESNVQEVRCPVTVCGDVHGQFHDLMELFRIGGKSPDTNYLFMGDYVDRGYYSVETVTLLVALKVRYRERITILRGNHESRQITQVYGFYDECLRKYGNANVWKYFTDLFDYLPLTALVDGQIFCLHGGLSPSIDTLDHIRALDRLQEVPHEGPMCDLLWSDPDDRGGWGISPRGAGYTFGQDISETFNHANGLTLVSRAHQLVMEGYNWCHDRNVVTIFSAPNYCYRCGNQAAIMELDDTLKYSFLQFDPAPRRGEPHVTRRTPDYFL
# heart = experiment: Example 5: tissue damage from reperfusion injury in the heart after myocardial infarction; format: in vivo; conditions: following myocardial infarction; no data given
# Experimental: (§1) LB100, LB102 or LB107 are tested in an animal model of cardiac ischemia-reperfusion injury.
# [2] = given orally to mice; cited from earlier work
# mammalian tissue = experiment: Example 4: reperfusion injury in mammalian tissue that has suffered an ischemia; format: in vivo; conditions: mammalian tissue after ischemia; no data given
# Experimental: as §1
# The mammalian tissue includes, but is not limited to, cardiac tissue, brain tissue and endothelial tissue.
# [3] = Example 5: sepsis, vascular leakage and endothelial dysfunction from reperfusion injury; format: in vivo; conditions: subject suffering from sepsis; no data given
# Akt [4] = experiment: Example 3: phosphorylation and activation of Akt in mammalian cells; format: cell-based; conditions: mammalian cells incl. cardiac, brain, endothelial cells; no data given
# Akt [5] = conditions: Lu et al. 2009; US patent; cited from earlier work
# [6] = Toxicokinetic studies in rats; format: in vivo; conditions: doses known to inhibit PP2A in tissue of rodents
# PP2A [7] = conditions: in vitro in human cancer cells; cited from earlier work
# [8] = Toxicokinetic studies in dogs; format: in vivo; conditions: doses known to inhibit PP2A in tissue of rodents
# [9] = tested on: distal end of a flap graft; experiment: Survival of tissue at the distal end of a skin flap graft (necrosis by planimetry and photographs); format: in vivo, in-bred rats
# Experimental: An ALZET pump (model 1007D, reservoir volume 100 ul) was implanted subcutaneously under anesthesia subcutaneously four days before creating a skin flap again under anesthesia. The pump in control animals contained sodium chloride and the pump in treated animals contained 0.55 mg of LB-100. The pump delivers 0.5 ul/hour+/−10% so each animal received about 12 ul/day for 8 days, 4 days prior to raising the graft and for the first 4 days after creation of the graft. There were 10 animals in each group.
# The animals were sacrificed on day 7 following creation of the flap, the amount of necrosis at the end of the flap was measured by planimetry. The area of necrosis at the end of the flap was divided by total surface area of the entire flap and expressed as a percentage.
# The visual appearance of the flaps was also inspected. FIGS. 1a-j show control rats 1-10 on day 7 and FIGS. 2a-j show treatment rats 1-10 on day 7. The treatment rats had received LB-100.
# PP2A [10] = conditions: xenografts of human tumor cells in mice, given parenterally; cited from earlier work
# cancer cells = conditions: mouse model systems; cited from earlier work
# PP1 = conditions: Lu et al. 2009(a); cited from earlier work
# rabbit cells = rabbit cells in vitro; cited from earlier work
# pig cells = pig cells in vitro; cited from earlier work
# [11] = tested on: cardiac tissue (myocardium); conditions: given before or after onset of oxygen deprivation, cited from earlier work
# pig myocardium = conditions: cited from earlier work
# [12] = tested on: mouse skeletal muscle endothelial cells; conditions: cited from earlier work
# [13] = young and aged rats; cited from earlier work
# endothelial barrier = conditions: septic insult; concentration that inhibits PP2A activity; cited from earlier work
Structure (SMILES),PP2A inhibition (PP2A [1]),Tissue damage associated with reperfusion injury in the heart (heart),Reperfusion injury (mammalian tissue),Endothelial dysfunction associated with reperfusion injury [3],Vascular leakage associated with reperfusion injury [3],Activation of Akt (Akt [4]),Dephosphorylation and inactivation of Akt by PP2A (Akt [4]),Phosphorylation of Akt (Akt [4]),Phosphorylation of Akt (Akt [5]),PP2A inhibition (PP2A [7]),PP2A inhibition (PP2A [10]),Growth of cancer cells (cancer cells),Protection from injury (rabbit cells),Protection from injury (pig cells),further results
"COC(=O)C1C(C(=O)N2CCN(C)CC2)[C@@H]2CC[C@H]1O2 (stereo in doubt) [LB-107, 3-(4-Methylpiperazine-1-carbonyl)-7-oxa-bicyclo[2,2,1]heptane-2-carboxylic acid methyl ester]",effective inhibitors of PP2A,reduce tissue damage; also recorded: prevent tissue damage,reduce reperfusion injury,reduce endothelial dysfunction,reduce vascular leakage,increase activation of Akt,reduce dephosphorylation and inactivation of Akt,increase phosphorylation of Akt,–,–,–,–,–,–,Oral activity [2]: active when given orally
CN1CCN(C(=O)C2C(C(=O)O)[C@H]3CC[C@@H]2O3)CC1 (some centres unmarked) [LB-100],effective inhibitors of PP2A,reduce tissue damage; also recorded: prevent tissue damage,reduce reperfusion injury,reduce endothelial dysfunction,reduce vascular leakage,increase activation of Akt,reduce dephosphorylation and inactivation of Akt,increase phosphorylation of Akt,increased phosphorylation of Akt,inhibitors of PP2A,inhibitors of PP2A,inhibit the growth of cancer cells,–,–,"Toxicity [6]: acceptable and reversible toxicity; Toxicity [8]: acceptable and reversible toxicity; Average area of necrosis (%) ([9]; average of 10 treatment rats, day 7, control average 41.0627243): 31.97%; Visual appearance of flaps (photographs) ([9]; day 7, distal ends of the flap, vs control rats): less extensive necrosis; Necrosis (area by planimetry) ([9]; individual treatment rats 1-10, day 7 after flap creation, pump with 0.55 mg LB-100): 64147 and 66886 and 77327 and 91515 and 112275 and 55473 and 63777 and 66144 and 37181 and 77089; Area of necrosis at the end of the flap divided by total surface area of the flap (%) ([9]; individual treatment rats 1-10, day 7 after flap creation, pump with 0.55 mg LB-100, about 12 ul/day for 8 days): 31.96% and 28.88% and 30.7% and 39.47% and 40.43% and 30.66% and 33.77% and 25.95% and 24.03% and 33.9%; Mean decrease in extent of necrosis in treated animals ([9]; treated vs control rats, planimetry, day 7): 22%"
CC(C)(C)OC(=O)N1CCN(C(=O)C2C(C(=O)O)[C@H]3CC[C@@H]2O3)CC1 (some centres unmarked) [LB-102],effective inhibitors of PP2A,reduce tissue damage; also recorded: prevent tissue damage,reduce reperfusion injury,reduce endothelial dysfunction,reduce vascular leakage,increase activation of Akt,reduce dephosphorylation and inactivation of Akt,increase phosphorylation of Akt,increased phosphorylation of Akt,inhibitors of PP2A,inhibitors of PP2A,inhibit the growth of cancer cells,–,–,"pIC50 (PP2A [1]; read-out: IC50 PP2A, Lu et al. 2009(a)): ~6.40; pIC50 (PP1): ~5.10"
COC[C@@H]([C@H](O)[C@H](O)C(=O)NCC[C@H](C)c1nc(/C=C/C[C@@H]2O[C@]3(C[C@@H](O)[C@@H]2C)O[C@H]([C@H](C[C@H](O)[C@H](C)[C@H](O)[C@H](C)/C=C(C)/C(C)=C/C=C/C(C)=C\C#N)OC)[C@H](OP(=O)(O)O)C3(C)C)co1)N(C)C [calyculin A],–,–,–,–,–,–,–,–,–,–,–,–,afforded protection from injury,afforded protection from injury,–
C[C@@](O)(/C=C/[C@H]1CC=CC(=O)O1)[C@@H](C[C@@H](O)\C=C/C=C\C=C\CO)OP(=O)(O)O [fostriecin],–,–,–,–,–,–,–,–,–,–,–,–,afforded protection from injury,afforded protection from injury,Size of infarction of cardiac tissue / injury [11]: minimizes the size of infarction; Size of infarction of cardiac tissue / injury ([11]; listed as FOS): reduces injury
C=C1[C@@H](O)[C@@H]2O[C@]3(CC[C@H](/C=C/[C@@H](C)[C@@H]4CC(C)=C[C@@]5(O[C@H](C[C@@](C)(O)C(=O)O)CC[C@H]5O)O4)O3)CC[C@H]2O[C@@H]1[C@@H](O)C[C@H](C)[C@H]1O[C@@]2(CCCCO2)CC[C@H]1C [okadaic acid],–,–,–,–,–,–,–,–,–,–,–,–,–,–,"Activity of phosphatases, especially PP2A, in heart tissue (pig myocardium; heart tissue infused with the inhibitor): decreased; Protection of myocardium against ischemia (pig myocardium; pig, in vivo model): protected pig myocardium against ischemia; Endothelial barrier function [12]: preserved endothelial barrier function; Cellular death following induced MI [13]: reduced cellular death; Endothelial barrier disruption (endothelial barrier): decreases endothelial barrier disruption"
